Assay results published in PubChem BioAssay AID493130 (Broad Institute, 2011).
Records with an inconclusive call do not appear. Activity calls are given as the source filed them.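 Rule for the calls: active = signal-lowering compounds whose fitted half-maximal concentration is at most ten times their highest tested dose; inconclusive = flat fit between -30 and -70%, or poor fit; inactive = flat within 30%, signal rising, or potency beyond limit.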

These compounds were tested against POS-1 (Caenorhabditis elegans) binding to mex-3 RNA (assay: C. elegans POS-1 RNA interaction disruptors – biochemical, fluorescence polarization, cherry-picked samples, set 2, counter-screen for MEX-5 RNA-binding inhibitor project, dose response (AID 493130;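 note: POS-1 as maltose binding protein fusion made in E. coli with FITC RNA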)). Details: POS-1/mex-3 RNA fluorescence polarization, 1 h.
NS(=O)(=O)c1ccc(-c2ccc(C=C3C(=O)NC(=S)NC3=O)o2)cc1 was tested, and the AC50 was 8.28 µM.
O=C(O)c1ccc(Cl)c2c1C1C=CCC1C(c1ccccn1)N2 (stereo not drawn) gave an AC50 of 8.69 µM.
Compound Cc1ccc(C(=O)NNC(=O)c2ccc3ccccc3c2O)cc1 has an AC50 of 7.78 µM.
Work on CC1CCN(Cc2c(O)ccc3c2O/C(=C\c2ccco2)C3=O)CC1 yielded an AC50 of 3.53 µM.

Same assay, conditions: POS-1/mex-3 RNA fluorescence polarization, 1 h; at 10 µM (top of the series)
In the case of Cc1c(O)ccc(-c2[nH]ncc2-c2nc3ccccc3s2)c1O, the “activity change, negative = inhibition” value was “inactive”.
Cc1nn(C)cc1C(=O)NNC(=S)Nc1ccccc1 was tested, and the “activity change, negative = inhibition” value was “inactive”.
N=c1c(C(=O)NCC2CCCO2)cc2c(=O)n3ccccc3nc2n1Cc1ccc(Cl)cc1 (stereo not drawn) was tested, and the “activity change, negative = inhibition” value was “inactive”.
For CCCCN(C(=O)c1ccc([N+](=O)[O-])o1)c1c(N)n(CCCC)c(=O)[nH]c1=O, the “activity change, negative = inhibition” value was “inactive”.
In the case of O=Cc1ccc2ccc3cccnc3c2n1, the “activity change, negative = inhibition” value was “inactive”.
In the case of CC(C)c1cc[n+](-c2nc([O-])sc2C=O)cc1, the “activity change, negative = inhibition” value was “inactive”.
In the case of COc1ccc2c(c1)NC(c1ccc(N(C)C)cc1)c1cccn1-2 (stereo not drawn), the “activity change, negative = inhibition” value was “inactive”.
In the case of COc1ccc(N/C=C/C(=O)c2ccc3c(c2)OCO3)cc1OC, the “activity change, negative = inhibition” value was “inactive”.
For CCN(CC)c1ccc(/C=N/N2CCN(c3ccccc3OC)CC2)cc1, the “activity change, negative = inhibition” value was “inactive”.
COc1ccc(-c2cn[nH]c2-c2ccc(OCC(=O)NN)cc2O)cc1 was tested, and the “activity change, negative = inhibition” value was “inactive”.
NC1=NC(=O)/C(=C\C=C\c2ccccc2)S1 was tested, and the “activity change, negative = inhibition” value was “inactive”.
For O=C(O)c1ccc2c(c1)ncn2C1CCCCC1, the “activity change, negative = inhibition” value was “inactive”.
With O=C(N/N=C/c1c(O)ccc2ccccc12)c1ccc[n+](CCO)c1 the “activity change, negative = inhibition” value was “inactive”.
In the case of COc1ccc2cc3c(N)c(C(=O)NCc4ccco4)sc3nc2c1, the “activity change, negative = inhibition” value was “inactive”.
COc1cc2c(cc1N/C=C(\C#N)c1nc(-c3ccc(F)cc3)cs1)oc1ccccc12 was tested, and the “activity change, negative = inhibition” value was “inactive”.
Cc1ccc(N/N=C(\C#N)C(=O)c2ccsc2)cc1 was tested, and the “activity change, negative = inhibition” value was “inactive”.
For Cc1cc(=O)oc(C)c1C(=O)Nc1c(C)n(C)n(-c2ccccc2)c1=O, the “activity change, negative = inhibition” value was “inactive”.
With Oc1c(C=Nc2ccccc2)sc(=S)n1Cc1ccccc1 the “activity change, negative = inhibition” value was “inactive”.
For O=C(O)c1cc(Oc2ccc(C(F)(F)F)cc2Cl)ccc1[N+](=O)[O-], the “activity change, negative = inhibition” value was “inactive”.
CC(C#N)(Nc1ccc(Cl)cc1)c1cccnc1 (stereo not drawn) was tested, and the “activity change, negative = inhibition” value was “inactive”.
With CSc1ccc(/C=C/C(=O)c2ccc(NC(C)=O)cc2)cc1 the “activity change, negative = inhibition” value was “inactive”.
In the case of O=C(O)c1ccc2cccnc2n1, the “activity change, negative = inhibition” value was “inactive”.
In the case of COc1cc2c3c(c1OC)-c1cc(O)ccc1CC3NCC2 (stereo not drawn), the “activity change, negative = inhibition” value was “inactive”.
In the case of O=C1/C(=C\c2ccc(Br)o2)Cc2ccccc21, the “activity change, negative = inhibition” value was “inactive”.
CCc1nnc(NC(=O)CCN2C(=O)/C(=C/c3cc(OC)c(OC)c(OC)c3)SC2=S)s1 was tested, and the “activity change, negative = inhibition” value was “inactive”.
For Cc1cc(/C=C2/C(=N)N3C(=NC2=O)SN=C3S(C)(=O)=O)c(C)n1-c1ccc(F)cc1, the “activity change, negative = inhibition” value was “inactive”.
For O=C1NC(=O)N(Cc2ccccc2)C(=O)/C1=C\c1ccco1, the “activity change, negative = inhibition” value was “inactive”.
In the case of COc1cc(/C=C2/C(=O)NN(c3ccc(Cl)c(Cl)c3)C2=O)cc([N+](=O)[O-])c1O, the “activity change, negative = inhibition” value was “inactive”.
In the case of Cc1cc(C)c2c3c(sc2n1)C(c1ccccc1)C(C#N)=C(N)O3 (stereo not drawn), the “activity change, negative = inhibition” value was “inactive”.
